# From patent publication US20260284079A1, “LIPID PRODRUGS OF ALLOPR[…] USES THEREOF” (Seaport Therapeutics, Inc., priority 2023, published 2026)
# Experiments:
# salivary cortisol levels = test: Trier Social Stress Test (TSST), salivary cortisol (Example 2); type: in vivo, human
# Procedure: (§1) A double-blind, placebo-controlled study was performed in 80 healthy participants to determine the effects of a single dose of Compound 1 in a validated and standardized behavioral challenge, the Trier Social Stress Test (TSST). The TSST is a reliable behavioral model used to examine the neurobiological response to acute stress in humans, whereby an acute stress (and associated acute stress response) is induced under experimentally controlled conditions. The TSST induces stress through public speaking. It incorporates social evaluation and unpredictability, by obliging the person to speak in front of an unresponsive audience and is further followed by a surprise mental arithmetic test. The TSST combines elements of a social-evaluative threat and uncontrollability to produce a consistent and robust physiological and psychological stress response in humans. On the day of the study, the participant was tasked with a speech prompt, for which they had 3 minutes to prepare. The participant was then required to present the speech for 5 minutes to a panel while under the pretense of being recorded. Following the speech, participants were given an unexpected mental arithmetic task. The TSST is more fully described in Allen A et al., Neurobiol. Stress (2017), February; 6:113-126.
# (§2) The study included a validation cohort and a randomized cohort. The validation cohort (n=10) was given placebo for the purposes of validating the TSST and study endpoints. The randomized cohort […] were randomized and stratified by sex to placebo or 375 mg of Compound 1 in a 1:1 ratio. The cohorts are described in Table 14. An overview of the TSST study design is also depicted in FIG. 4C.
# Compound 1 was formulated in combination with excipients Peceol™ (glyceryl monooleate), Kolliphor® RH40 (macrogolglycerol hydroxystearate) and super-refined sesame oil as a clear to yellow viscous solution. Each gram of formulation contains 300 mg of Compound 1, 189 mg of Peceol™, 336 mg Kolliphor® RH40, and 175 mg of super-refined sesame oil. To prepare the final dosage, the required quantity is manually filled into size 17.5 oblong capsules. The placebo contained vehicle only, i.e., the above formulation without Compound 1.
# (§3) The objective of the study was to evaluate the efficacy of Compound 1 vs. placebo in blunting the response to endpoints measured during and after the TSST procedure. The primary efficacy endpoint was the change from baseline (before TSST procedure) to the peak (maximum change) in salivary cortisol levels as measured before, during, and after the TSST procedure. The primary outcome for determining this was salivary cortisol levels. The key secondary outcomes were be the Numerical Rating Scale (NRS) for stress, anxiety, fear, embarrassment, and excitement. Additional secondary outcomes were the State Trait Anxiety Index (STAI), and blood pressure. Safety and tolerability (i.e., incidence, severity, and duration of treatment-emergent adverse events (TEAEs), serious adverse events (SAEs), and incidence of other clinically relevant signs) were also monitored. Prior to the TSST, a post-dose sample was collected for pharmacokinetic analysis.
# To normalize for food effects, participants were served a standardized meal to be consumed approximately 30 minutes prior to dosing with Compound 1. Compound 1 was administered with 240 mL of RT water ~3-4 hours prior to the start of the TSST.
# Cortisol levels (including, for example, salivary cortisol levels) are a robust and sensitive marker of stress and the stress hormone response. Salivary cortisol concentrations were collected and measured throughout the study, with the primary endpoint being the maximum change from baseline (pre-TSST).
# [1] = Single ascending dose (SAD) study, PK (Example 1 Part 1)
# [2] = Stanford Sleepiness Scale (SSS) and MOAA/S; type: in vivo, human
# Text: Part 1 Exploratory Objectives: To characterize the pharmacodynamic (PD) effects, and the PK/PD relationship, of Compound 1 on select clinical outcome assessments (COAs) of central nervous system effects following ascending single oral doses of Compound 1 (e.g., Stanford Sleepiness Scale (SSS), Modified Observer's Assessment of Alertness/Sedation Scale (MOAA/S), Sleep Quality Scale (SQS)). Part 1 Exploratory Endpoints: Changes from Baseline in SSS, MOAA/S, and/or SQS.
# Part 3 Exploratory Objective: to characterize the PD effects, and the PK/PD relationships of Compound 1 on select effects following multiple oral doses of Compound 1. Part 3 Exploratory Endpoints: changes from baseline in qEEG, SSS, MOAA/S, the SQS, Cogstate, Body Sway, and video-oculography (VOG) assessment.
# Participants were assessed using metrics as outlined below. The SSS is a one item self-report questionnaire that measures and quantifies progressive steps in the level of sleepiness throughout the day. Subjects select one of seven statements that best represents their level of perceived sleepiness at a given timepoint, as depicted in Table 7.
# The MOAA/S is a clinical outcome assessment that measures a subject's level of alertness/sedation as determined by a rater; in its modified form, it uses only the responsiveness component of the original Observer's Assessment of Alertness/Sedation Scale. Responsiveness, as a measure of sedation, was assessed and scored on a scale of 0 to 5 as outlined in Table 8.
# [3] = TSST study safety and tolerability (Example 2); type: in vivo, human
# Procedure: as §1, §2, §3
# [4] = Body sway (posturography); type: in vivo, human; details: MAD
# Procedure: Body Sway is assessed as a measure of a subject's slight postural movements in order to retain balance either statically in a neutral position or dynamically while in motion. Body Sway is typically measured by total displacement of the center of body mass relative to the base of support over time. Posturography is an objective, sensitive, reliable, and non-invasive method designed to assess the effects of drugs and alcohol on body sway and vigilance. Body sway is recorded using a computerized force-platform. Using specific positioners, bare feet subjects are asked to stand still and motionless, looking at a cue placed in front of them. Measurement of body sway (one minute with eyes open and one minute with eyes closed) is recorded as recommended by the International Society of Postuography. The length and area of the postural oscillations are then calculated.
smiles,measurement,setting,value
CCCCCCCC(=O)OCC(COC(=O)CCCCCCC)OC(=O)CC(C)CC(=O)OCOC(=O)O[C@@H]1CC[C@@]2(C)[C@@H](CC[C@@H]3[C@@H]2CC[C@]2(C)[C@@H](C(C)=O)CC[C@@H]32)C1 (some centres unmarked) [Compound 1],"decrease in salivary cortisol levels versus placebo, maximum non-transformed mean",salivary cortisol levels; 375 mg,~ 2.2 ×
same,time during which blunting of salivary cortisol was significantly different from placebo,salivary cortisol levels; 375 mg,up to 30 minutes post-end of TSST
same,"treatment effect size versus placebo, Cohen's d",salivary cortisol levels; 375 mg,0.72
same,reduction in salivary cortisol levels post-TSST,"salivary cortisol levels; 375 mg, 10 minutes post-TSST",62.8%
same,reduction in salivary cortisol levels post-TSST,"salivary cortisol levels; 375 mg, 60 minutes post-TSST",45.5%
same,mean reduction in salivary cortisol levels post-TSST,"salivary cortisol levels; 375 mg, across all time points",54.4%
same,"blunting of increases in salivary cortisol levels, LSMean change from baseline (pre-TSST)",salivary cortisol levels; single 375 mg oral dose ~3-4 hours before TSST,partial blunting
same,dose proportionality of mean plasma allopregnanolone and combined allopregnanolone concentrations,[1]; doses up to 560 mg,increased at a dose proportional rate
same,oral bioavailability,"[1]; human, oral",high oral bioavailability
same,dose proportionality of several PK parameters,[1]; range of 750 to 1000 mg,greater than dose-proportional increase
same,"maximal concentrations and exposure values, combined allopregnanolone compared to allopregnanolone",[1]; single ascending doses,at least 10 times higher
same,change from baseline in SSS and MOAA/S,"[2]; Cohort 6 (Part 3), 500 mg, compared to lower doses",greater magnitude of effect from baseline
same,change from baseline in SSS and MOAA/S score,"[2]; Cohorts 1, 2, 2b (Part 1), single doses",dose-dependent increase from baseline in the Stanford Sleepiness Scale (SSS) and a decrease from baseline in the MOAA/S score
same,change from baseline in SSS and MOAA/S,"[2]; Cohorts 4, 5, 7, 8 (Part 3), 250 mg and 375 mg, early days of dosing",low magnitude of change from baseline
same,time of maximum changes in SSS and MOAA/S,[2]; Part 1,3-5 hours post-dose
same,time of return to baseline levels of SSS and MOAA/S,"[2]; Part 1, all treatment groups",≤ 12 hours post-dose
same,difference in mean change from baseline between fed (HF or LF) and fasted states,"[2]; cohort 3, 140 mg",no apparent difference
same,tolerability in the TSST study,[3]; single 375 mg dose,well tolerated
same,TEAE dizziness,"[3]; single 375 mg, placebo 3%",20%
same,TEAE headache,"[3]; single 375 mg, placebo 7.7%",7.3%
same,TEAE somnolence,"[3]; single 375 mg, placebo 13%",29%
same,effects on body sway,[4]; day 1,Slight effects
same,effects on body sway,[4]; day 7,absent
